{"source": "patent US20110046120A1", "about": "“TREATMENT OF IMPULSE CONTROL DISORDERS” (Mclean Hospital Corporation, priority 2006, published 2011)", "key": {"[1]": {"test_system": "α2 adrenoceptor", "details": "cited from earlier work; for effect on yohimbine's effects: α2 agonists, Ghitza et al, 2005, Le et al, Lee et al, 2004"}, "[2]": {"test_system": "reward circuitry", "experiment": "cardiac gated fMRI BOLD imaging during cocaine infusion", "type": "in vivo, human", "details": "cocaine HCl 0.6 mg/kg infusion (max 40 mg), vs pre-infusion baseline, count out of 7 cocaine-dependent subjects", "description": "We imaged reward circuitry in humans during cocaine infusion, using cardiac gated fMRI BOLD imaging to compensate for brainstem motion. We further used a clustered volume acquisition with sharpened slice profiles to cluster the acquisition of the brainstem volume and thus reduce the effects of imaging noise on cocaine-induced euphoria and craving. Eleven right-handed men (34±7 years old) with the DSM-IV diagnosis of cocaine dependence were studied. During imaging, subjects underwent a randomized double-blind infusion of either cocaine HCl (0.6 mg/kg up to maximum dose of 40 mg) or saline. Subjects were scanned on an Instascan device (1.5 T General Electric Signa; modified by Advanced NMR Systems, Wilmington, Mass.) using a head coil (General Electric). […] Automated shimming with second order shims was performed to improve Bo field homogeneity. Functional scans utilized cardiac gating with an asymmetric spin echo, T2*-weighted CVA (TR=6 RR, three slices per each of the first two RRs; TE=70; offset=−25 ms; 128×64 matrix; thickness=3.12×3.12 mm, through-plane resolution=7 mm; 200 images/slice). […] Seven matched sets of cocaine and saline infusion scans were interpretable after motion-correction. Statistical maps were constructed using Kolmogorov-Smirnov (KS) statistics and thresholded at the corrected p value for brain regions sampled, p<10-5. […]"}, "[3]": {"test_system": "cocaine-dependent individuals", "experiment": "self-rated subjective responses after intravenous cortisol, cocaine and saline in cocaine dependence", "type": "in vivo, human", "description": "To assess cocaine/stress cross-sensitization, 12 cocaine-dependent individuals (age: 39.8±3.5 years) were administered cortisol (0.2 and 0.5 mg/kg), along with cocaine (0.2 mg/kg) and saline via intravenous boluses, in a double-blind, counterbalanced fashion. The individualized description of subjective responses were categorized into four components: craving, high, rush, and low, which were self-rated on a computerized continuous scale of 0 (none) to 3 (extreme) each minute for two minutes prior and 20 minutes following each infusion. Cocaine craving was proactively defined with the subject, clinically as an urge to use the drug and operationally in terms of the action the individual wanted to engage in to get cocaine. The ratings for high (well-being, self-confidence, and sociability), rush (perception of elevated heart rate and sweating, along with sensations of ‘speeding’), and low (dysphoric affect distinct from the high experience diminishment) were subjectively defined and not necessarily associated with a behavioral response or with the planning of physical activity. […] Cocaine elevated measures of craving (p<0.001); high (p<0.02); rush (p<10-4); and low (p=0.05). Saline produced no significant ratings changes."}, "[4]": {"test_system": "reward circuitry", "experiment": "fMRI with cardiac gating during low-dose morphine infusions", "description": "Normal human reward circuitry was studied during low-dose morphine infusions using fMRI with cardiac gating in an unblinded study. […] Morphine and saline infusions were counter-balanced across subjects, and segregated in separate scan sessions 7 days apart. Four 2 mL infusions were given over 8 minutes, with each infusion lasting 20 seconds. The onset of each infusion was separated by a 2-minute interval. The total morphine dose divided evenly over the 4 infusions was 4 mg/70 kg. Respiratory rate, heart rate, O2 saturation, and end-tidal carbon dioxide concentration in the expired air (ETCO2) were monitored during the experiment in each individual for safety. Subjects were asked to rate their subjective high on a 10-point hedonic rating scale (0=no high; 10=max. high imaginable)."}, "[5]": {"test_system": "healthy subjects and neuropsychiatric patients", "details": "cited from earlier work"}, "[6]": {"details": "Guthrie et al, 1990; cited from earlier work"}, "[7]": {"test_system": "NAc and other stress-associated regions", "experiment": "monetary reward task with fMRI in PG subjects given yohimbine", "type": "in vivo, human", "details": "vs PG subjects given saline and normal controls", "description": "During the gambling paradigm, subjects participated in a game of chance where they actually won or lost money while in the fMRI scanner. Signal changes that anticipate or accompany monetary gains and losses under varying conditions of controlled expectation were evaluated. Specifically, evaluated were: a) an “expectancy phase”, when a promising or unpromising roulette-like spinner (FIG. 4) is presented and b) an “outcome phase” when the arrow lands on one sector of that spinner, and thereby alters the subjects' winnings. It is known that, when applied to healthy controls, this task differentiates the fMRI time courses in the NAc, mPFC and SLEA and in related regions during expectancy vs. outcome phases.\nAt the start of the game, each subject was given an endowment of $50 and was told that (s)he might lose some or all of this stake, retain it or increase it. Each trial consisted of a “prospect phase”, when a spinner was presented and an “outcome phase” when a sector of the spinner was selected by the arrow and a corresponding amount was added to or subtracted from the subjects' winnings. […] The display was static for the first 0.5 second and then a superimposed arrow began to rotate. […] Only results of the last 18 trials were scored for each run since the initial trial was inserted into the run sequence purely to maintain counterbalancing. […]"}, "[8]": {"details": "morphine 4 mg/70 kg total, 5 subjects"}}}
{"smiles": "CCS(=O)(=O)N1CCC[C@@H]2CN3CCc4cc(OC)ccc4[C@@H]3C[C@@H]21.Cl", "note": "[RS-79948-197]", "values": [{"measurement": "reproduction of yohimbine's effects", "setting": "[1]; selective α2 adrenoceptor antagonist, literature", "result": "replication of these effects"}]}
{"smiles": "Clc1cccc(Cl)c1N=C1NCCN1", "note": "[clonidine]", "values": [{"measurement": "effect on yohimbine's effects", "setting": "[1]", "result": "blockade of yohimbine's effects"}]}
{"smiles": "COC(=O)[C@H]1[C@@H](OC(=O)c2ccccc2)C[C@@H]2CC[C@H]1N2C", "note": "[cocaine]", "values": [{"measurement": "subjects with focal positive fMRI signal changes in the right NAc, amygdala, and mPFC", "setting": "[2]", "result": "≥ 5"}]}
{"smiles": "C[C@]12CCC(=O)C=C1CC[C@@H]1[C@@H]2[C@@H](O)C[C@@]2(C)[C@H]1CC[C@]2(O)C(=O)CO", "note": "[cortisol]", "values": [{"measurement": "craving self-rating, time effect", "setting": "[3]; cortisol 0.2 and 0.5 mg/kg iv bolus, F=3.11, p<0.001", "result": "significant increases in craving"}, {"measurement": "craving self-rating, dose effect", "setting": "[3]; cortisol 0.2 vs 0.5 mg/kg iv, F=0.06, p=0.81", "result": "no dose effect"}]}
{"smiles": "CC(Oc1c(Cl)cccc1Cl)C1=NCCN1", "note": "(stereo not shown) [lofexidine]", "values": [{"measurement": "effect on yohimbine's effects", "setting": "[1]", "result": "blockade of yohimbine's effects"}]}
{"smiles": "CN1CC[C@]23c4c5ccc(O)c4O[C@H]2[C@@H](O)C=C[C@H]3[C@H]1C5", "note": "[morphine]", "values": [{"measurement": "adverse side-effects", "setting": "[4]; morphine 4 mg/70 kg total over 4 infusions, drug naive male subjects", "result": "No adverse side-effects"}, {"measurement": "fMRI activation in bilateral NAc and mPFC", "setting": "[4]; [8]", "result": "significant focal activations"}, {"measurement": "fMRI activation in the amygdala", "setting": "[4]; [8]", "result": "subthreshold activation"}, {"measurement": "subjective state (hedonic rating)", "setting": "[4]; morphine 4 mg/70 kg total, data not shown", "result": "mild euphoria"}, {"measurement": "fMRI activation in the VT", "setting": "[4]; morphine 4 mg/70 kg total, with cardiac gating", "result": "left VT activation"}]}
{"smiles": "COC(=O)[C@@H]1[C@H]2C[C@H]3c4[nH]c5ccccc5c4CCN3C[C@@H]2CC[C@@H]1O", "note": "[yohimbine]", "values": [{"measurement": "tolerability", "setting": "[5]; yohimbine 0.125 mg/kg to 0.4 mg/kg intravenous", "result": "generally well tolerated"}, {"measurement": "reported adverse effects in clinical trials", "setting": "[5]; yohimbine clinical trials", "result": "elevated blood pressure and heart rate, psychomotor agitation, irritability, tremor, headaches, skin flushing, dizziness, urinary frequency, nausea, vomiting and perspiration"}, {"measurement": "PET brain activity in PTSD subjects", "setting": "[5]; yohimbine infusions 0.4 mg/kg, ten PTSD subjects vs matched healthy controls, associated with increased anxiety self-reports", "result": "deactivations in prefrontal, temporal, parietal, and orbitofrontal cortexes"}, {"measurement": "half-life", "setting": "[6]", "result": "about 45 minutes"}, {"measurement": "brain activity in the NAc and other stress-associated regions", "setting": "[7]", "result": "significantly elevated levels of brain activity"}]}
